Measured values: patent US20100183600A1, “RAF Inhibitors and Their Uses” (ARQULE, INC., priority 2008, published 2010)
pEC50, pIC50: −log10 of the molar value. Structures can show the parent of a compound that is named as a salt.

Experiments:
p-Erk (A375) = assay: Cell-based phosphorylation assay with electroblotting readout; set-up: species or system human; settings: Homo sapiens, A-375; A375 cells, 1 hr
Description: Compounds of the present invention have been screened for their ability to inhibit all isoforms, both wild-type and mutant of RAF kinases (A-RAF, B-RAF and C-RAF) in general, and the mutant B-RAF (V600E) in particular in human cancer cells. A375 is a human melanoma cell line that harbors the most common B-RAF mutation-V600E found in human cancers. The ability of compounds to inhibit RAF kinases in this assay is correlated with the reduction of MEK and ERK phosphorylation, and is therefore a direct indicator of potential in vivo therapeutic activity.
Materials: A375 cells from ATCC were maintained at 37° C., 5% CO2 in DMEM media supplemented with 10% fetal bovine serum, penicillin/streptomycin and fungizone. (Invitrogen)
Methods: Test compounds were dissolved and diluted 1:1000 in DMSO. A375 cells were seeded in six-well tissue culture plates at 5-8×10^5 per well and cultured at 37° C. for 24 h. Cells were incubated with compounds for one hour before being lysed in EPage™ loading buffer (Invitrogen). Lysates were electrophoresed on 8% EPage™ gels and transferred to polyvinylidene difluoride membranes. After incubations with primary and secondary antibodies, the immunostained proteins were detected and quantitated by an Odyssey infrared imager (LI-COR). Analysis was performed by non-linear regression to generate a dose response curve. The calculated IC50 value was the concentration of the test compound that causes a 50% decrease in phospho-MEK and phospho-ERK levels. The primary antibodies used were anti-MEK (Stressgen), anti-ERK (BD Biosciences), anti-phospho-ERK and anti-phospho-MEK (Cell Signaling). The secondary antibodies used were IRDYE800 anti-rabbit, IRDYE 800 anti-mouse (Rockland), AlexaFluor680 anti-mouse and AlexaFluoro680 anti-rabbit (Invitrogen).
A375 cells were treated with 0, 12, 37, 111, 333 and 1000 nM of indicated compounds for 1 hr. The levels of Phospho-ERK and total-ERK were accessed by immunoblotting.

mutant B-RAF = target: T1, mutant B-RAF (Homo sapiens, UniProt P15056, V600E); assay: Measurement of RAF activity (MEK-1 phosphorylation); format: biochemical; settings: 50 μM ATP, MEK-1 substrate; read-out: Mut-B-Raf IC50
T1 construct: purchased Upstate (Charlottesville, Va.)
Experimental: Materials: The RAF kinases and the anti-phospho MEK1/2 antibody were from Upstate (Charlottesville, Va.). The RAF substrate used was full length N-terminal GST-MEK-1, which was expressed in E. coli and purified in-house by HPLC. All proteins were aliquoted and stored at −80° C. Superblock™ in phosphate buffered saline (PBS) blocking reagent was form Pierce (cat. #37515). ATP was from Roche (cat. # 19035722). Alkaline Phosphatase-tagged goat anti-rabbit antibody was from Pierce (cat. # 31340).
Methods: All RAF biochemical assays were performed using an assay buffer containing 20 mM MOPS, 5 mM EGTA, 37.5 mM MgCl2, 1 mM DTT and 50 μM ATP. There was 6.25 ng/well mutant B-RAF and 7.5 ng/well MEK-1 in the final assay conditions. Compounds were serially diluted in assay buffer containing 1% DMSO and 20 μl of test compound at a concentration 3-fold more than the final concentration, and were added to a polypropylene V-well reaction plate. Vehicle control wells received buffer only with DMSO at equivalent concentrations to the test wells. […] These reaction plates were incubated at room temperature for 30 minutes. Capture of MEK-1 was initiated by transferring 50 μl of the reaction mixture to a Nunc Maxisorp™ microplate that is designed for non-specific protein capture. After 30 minute capture of MEK-1 at room temperature, this plate was washed with TBST (6×200 μL/well) to fully terminate the reaction. The plate was then blocked for 1 hour by the addition of 100 μl/well of Superblock™ in phosphate buffered saline (PBS) blocking reagent. Plate was again washed with TBST (6 times with 200 μl/well), followed by the addition of 70 μl/well of Upstate anti-phospho MEK ½ diluted 1:1000 in Pierce Superblock (PBS). After a 60 minute incubation, this plate was washed with TBST (6 times with 200 μl/well), and 70 μl of the secondary antibody (Pierce Alkaline Phosphatase tagged goat anti-rabbit) prepared at 1:4000 in Superblock, were added. After a 45 minute incubation at room temperature, the wells of the microplate were washed with TBST (6 times with 200 μl/well), and thereafter 100 μl/well of Attophos™ fluorescent alkaline phosphatase substrate was added according to the manufacturer's instructions (JBL Scientific). Fluorescence was read on a Perkin Elmer Envision multilabel reader, using the following filters: Excitation Filter: CFP430 nM, Emission Filter: Emission Filter 579 nM.

SK-MEL-2 = assay: Cell growth inhibition assay (MTS); format: cell-based; settings: Homo sapiens; SK-MEL-2, 72 hours
Experimental: (§1) Compounds of the present invention have been tested for activity against a variety of cancer cell lines. The ability of compounds to inhibit cell growth in this assay is correlated with the reduction of dehydrogenase enzyme activity found in metabolically active cells.
(§2) Materials: A large variety of cancer cells from ATCC were maintained at 37° C., 5% CO2 in DMEM media supplemented with 10% fetal bovine serum, penicillin/streptomycin and fungizone (Invitrogen). NCM460 (Incell), a normal colon epithelial cell line, and human mammary epithelial cells (Cambrex) were maintained at 37° C., 5% CO2 in DMEM and HEBM media (Cambrex), respectively.
(§3) Methods: Test compounds were dissolved and diluted to 300× in DMSO then diluted 1:40 in DMEM. Cells were seeded into 96-well tissue culture plates at 1-5×10^3 per well and cultured at 37° C. for 24 h. Cells were incubated with test compounds for 72 hours followed by incubation with tetrazolium compound (3-(4,5-dimethylthiazol-2-yl)-5-(3-carboxymethoxyphenyl)-2-(4-sulfophenyl)-2H-tetrazolium, inner salt; MTS) and the electron coupling reagent, phenazine methosulfate (PMS) for 4 hr. […] The measurement of the absorbance of the formazan was assessed using an ENVISION™ (Perkin Elmer) microplate reader at 492 nm. The calculated IC50 value is the concentration of the test compound that causes a 50% decrease in the absorbance.

WM-266-4 = assay: Cell growth inhibition assay (MTS); format: cell-based; settings: Homo sapiens; WM-266-4, 72 hours
Experimental: as §1, §2, §3

RKO = assay: Cell growth inhibition assay (MTS); format: cell-based; settings: Homo sapiens, 72 hours
Experimental: as §1, §2, §3

DLD-1 = assay: Cell growth inhibition assay (MTS); format: cell-based; settings: Homo sapiens; DLD-1, 72 hours
Experimental: as §1, §2, §3

A375 = assay: Cell growth inhibition assay (MTS); format: cell-based; settings: Homo sapiens, A-375, 72 h, A375, 72 hours
Experimental: as §1, §2, §3

SK-MEL-28 = assay: Cell growth inhibition assay (MTS); format: cell-based; settings: Homo sapiens; SK-MEL-28, 72 hours
Experimental: as §1, §2, §3

T1 sequence (P15056 whole entry V600E): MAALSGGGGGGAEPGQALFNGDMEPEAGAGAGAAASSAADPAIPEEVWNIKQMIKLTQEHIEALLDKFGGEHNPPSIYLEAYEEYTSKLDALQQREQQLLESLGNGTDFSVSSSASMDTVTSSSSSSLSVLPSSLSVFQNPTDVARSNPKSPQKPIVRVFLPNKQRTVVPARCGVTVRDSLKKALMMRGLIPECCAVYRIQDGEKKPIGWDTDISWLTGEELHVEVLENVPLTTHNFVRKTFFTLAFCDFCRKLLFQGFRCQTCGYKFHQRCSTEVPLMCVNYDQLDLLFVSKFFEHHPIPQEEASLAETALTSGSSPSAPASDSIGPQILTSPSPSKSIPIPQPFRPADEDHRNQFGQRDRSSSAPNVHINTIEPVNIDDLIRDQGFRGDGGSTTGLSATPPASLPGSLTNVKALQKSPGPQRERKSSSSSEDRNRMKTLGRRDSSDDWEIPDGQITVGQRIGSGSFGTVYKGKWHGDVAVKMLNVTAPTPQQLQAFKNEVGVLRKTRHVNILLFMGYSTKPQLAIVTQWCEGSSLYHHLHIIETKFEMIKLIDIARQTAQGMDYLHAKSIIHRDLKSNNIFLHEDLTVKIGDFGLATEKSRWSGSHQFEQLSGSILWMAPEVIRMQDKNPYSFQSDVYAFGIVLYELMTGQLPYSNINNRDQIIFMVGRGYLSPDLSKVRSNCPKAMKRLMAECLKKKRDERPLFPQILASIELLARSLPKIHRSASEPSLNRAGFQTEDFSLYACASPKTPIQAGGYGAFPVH

Compound	melting point	pEC50 (p-Erk (A375))	pIC50 (mutant B-RAF)	GI50 (SK-MEL-2)	GI50 (WM-266-4)	GI50 (RKO)	GI50 (DLD-1)	GI50 (A375)	GI50 (SK-MEL-28)
O=P(O)(O)Oc1cccc(-c2nc3sccn3c2-c2cccc(N[C@@H]3CCCN(S(=O)(=O)c4ccc(Cl)cc4)C3)c2)c1 (as salt: phosphate)	239 to 245 °C	–	–	–	–	–	–	–	–
O=S(=O)(c1ccc(Cl)cc1)N1CCC[C@@H](Nc2nccc(-c3c(-c4cccc(O)c4)nc4occn34)n2)C1 [Compound 4, (R)-3-(5-(2-(1-(4-chlorophenylsulfonyl)piperidin-3-ylamino)pyrimidin-4-yl)imidazo[2,1-b]oxazol-6-yl)phenol]	–	7.46	8.00	1800 nM	15 nM	1810 nM	15400 nM	0.54 nM	1120 nM
O=S(=O)(c1ccc(Cl)cc1)N1CCC(Nc2nccc(-c3c(-c4cccc(O)c4)nc4sccn34)n2)CC1 [Compound 7, 3-(5-(2-(1-(4-chlorophenylsulfonyl)piperidin-4-ylamino)pyrimidin-4-yl)imidazo[2,1-b]thiazol-6-yl)phenol]	–	7.09	8.10	519 nM	6 nM	85 nM	5520 nM	< 0.4 nM	88 nM
O=S(=O)(c1ccc(F)cc1)N1CCC(Nc2nccc(-c3c(-c4cccc(O)c4)nc4occn34)n2)CC1 [Compound 9, 3-(5-(2-(1-(4-fluorophenylsulfonyl)piperidin-4-ylamino)pyrimidin-4-yl)imidazo[2,1-b]oxazol-6-yl)phenol]	–	6.89	7.32	356 nM	< 0.4 nM	283 nM	1620 nM	< 0.4 nM	300 nM
O=S(=O)(C1CC1)N1CCC(Nc2nccc(-c3c(-c4cccc(O)c4)nc4occn34)n2)CC1 [Compound 11, 3-(5-(2-(1-(cyclopropylsulfonyl)piperidin-4-ylamino)pyrimidin-4-yl)imidazo[2,1-b]oxazol-6-yl)phenol]	–	7.28	7.32	2040 nM	3 nM	323 nM	13900 nM	< 0.4 nM	555 nM
Cn1ccc(S(=O)(=O)N2CCC[C@@H](Nc3nccc(-c4c(-c5cccc(O)c5)nc5sccn45)n3)C2)n1 [Compound 14, (R)-3-(5-(2-(1-(1-methyl-1H-pyrazol-3-ylsulfonyl)piperidin-3-ylamino)pyrimidin-4-yl)imidazo[2,1-b]thiazol-6-yl)phenol]	–	8.70	8.22	170 nM	5 nM	122 nM	3000 nM	2 nM	74 nM
Cn1ccc(S(=O)(=O)N2CCC(Nc3nccc(-c4c(-c5cccc(O)c5)nc5occn45)n3)CC2)n1 [Compound 20, 3-(5-(2-(1-(1-methyl-1H-pyrazol-3-ylsulfonyl)piperidin-4-ylamino)pyrimidin-4-yl)imidazo[2,1-b]oxazol-6-yl)phenol]	–	7.14	7.89	310 nM	2 nM	372 nM	9470 nM	< 0.4 nM	393 nM
Cn1ccc(S(=O)(=O)N2CCC[C@@H](Nc3nccc(-c4c(-c5ccc(F)c(O)c5)nc5occn45)n3)C2)n1 [Compound 22, (R)-2-fluoro-5-(5-(2-(1-(1-methyl-1H-pyrazol-3-ylsulfonyl)piperidin-3-ylamino)pyrimidin-4-yl)imidazo[2,1-b]oxazol-6-yl)phenol]	–	7.47	9.02	42.8 nM	< 0.4 nM	52 nM	5920 nM	< 0.4 nM	33 nM
